From patent publication US7767659B2, “Synthesis of naturally occurring ecteinascidins and related compounds” (Pharma Mar, S.A., priority 2002, dated 2010)

Key:
[1] = tested on: HT-29; experiment: cells; conditions: Homo sapiens, HT-29, 48 h; for GI50: read-out: HT29 GI50; for CC50: read-out: HT29 LC50; for IC (TGI): read-out: HT29 TGI
Outline: (§1)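 Colorimetric SRB read (490 nm) on triplicate wells after 48 h at 37 °C, 5% CO2. Dose range 10 to 10^−8 μg/ml; 5×10^3 cells/well pre-attached 18 h.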

[2] = tested on: LoVo; experiment: cells; conditions: Homo sapiens, LoVo, 48 h; for GI50: read-out: LOVO GI50; for CC50: read-out: LOVO LC50; for IC (TGI): read-out: LOVO TGI
Outline: as §1

[3] = tested on: A-549; experiment: cells; conditions: Homo sapiens, A549, 48 h; for GI50: read-out: A549 GI50; for CC50: read-out: A549 LC50; for IC (TGI): read-out: A549 TGI
Outline: as §1

[4] = tested on: IGROV-ET; experiment: Inhibition of cells growth by colorimetric assay (SRB); conditions: Homo sapiens, 48 h; for GI50: read-out: IGROV-ET GI50; for CC50: read-out: IGROV-ET LC50; for IC (TGI): read-out: IGROV-ET TGI
Outline: as §1

[5] = tested on: HeLa-APL; experiment: as above; conditions: Homo sapiens, 48 h; for GI50: read-out: HELA-APL GI50; for CC50: read-out: HELA-APL LC50; for IC (TGI): read-out: HELA-APL TGI
Outline: as §1

[6] = tested on: SK-MEL-28; experiment: as above; conditions: Homo sapiens, SK-MEL-28, 48 h; for GI50: read-out: MEL-28 GI50; for CC50: read-out: MEL-28 LC50; for IC (TGI): read-out: MEL-28 TGI
Outline: as §1

[7] = tested on: HeLa; experiment: as above; conditions: Homo sapiens, HeLa, 48 h; for GI50: read-out: HELA GI50; for CC50: read-out: HELA LC50; for IC (TGI): read-out: HELA TGI
Outline: as §1

[8] = tested on: DU-145; experiment: as above; conditions: Homo sapiens, DU-145, 48 h; for GI50: read-out: DU145 GI50; for CC50: read-out: DU145 LC50; for IC (TGI): read-out: DU145 TGI
Outline: as §1

[9] = tested on: LoVo-Dox; experiment: as above; conditions: Homo sapiens, 48 h; for GI50: read-out: LOVO-DOX GI50; for CC50: read-out: LOVO-DOX LC50; for IC (TGI): read-out: LOVO-DOX TGI
Outline: as §1

[10] = tested on: IGROV-1; experiment: as above; conditions: Homo sapiens, IGROV-1, 48 h; for GI50: read-out: IGROV GI50; for CC50: read-out: IGROV LC50; for IC (TGI): read-out: IGROV TGI
Outline: as §1

[11] = tested on: K-562; experiment: as above; conditions: Homo sapiens, K562, 48 h; for GI50: read-out: K562 GI50; for CC50: read-out: K562 LC50; for IC (TGI): read-out: K562 TGI
Outline: as §1

[12] = tested on: SK-BR-3; experiment: as above; conditions: Homo sapiens, SK-BR-3, 48 h; for GI50: read-out: SK-BR3 GI50; for CC50: read-out: SK-BR3 LC50; for IC (TGI): read-out: SK-BR3 TGI
Outline: as §1

[13] = tested on: LNCaP; experiment: as above; conditions: Homo sapiens, LNCaP, 48 h; for GI50: read-out: LNCAP GI50; for CC50: read-out: LNCAP LC50; for IC (TGI): read-out: LNCAP TGI
Outline: as §1

[14] = tested on: PANC-1; experiment: as above; conditions: Homo sapiens, PANC-1, 48 h; for GI50: read-out: PANC-1 GI50; for CC50: read-out: PANC-1 LC50; for IC (TGI): read-out: PANC-1 TGI
Outline: as §1

## COc1cc2c(cc1O)CCN[C@]21CS[C@@H]2c3c(O)c(C)c4c(c3[C@H](COC1=O)N1C2[C@@H]2N[C@@H](Cc3cc(C)c(OC)c(O)c32)[C@@H]1O)OCO4 (stereo partly drawn) [compound 68]
[1]
  GI50: 6.66 nM
  CC50: 14200 nM
  IC (TGI): 15 nM
[2]
  GI50: 12 nM
  CC50: 1930 nM
  IC (TGI): 48 nM
[3]
  GI50: 28.1 nM
  CC50: 6290 nM
  IC (TGI): 113 nM
[4]
  GI50: 290 nM
  CC50: 8630 nM
  IC (TGI): 1660 nM
[5]
  GI50: 3.81 nM
  CC50: 10.4 nM
  IC (TGI): 6.32 nM
[6]
  GI50: 5.45 nM
  CC50: 52.1 nM
  IC (TGI): 15.7 nM
[7]
  GI50: 4 nM
  CC50: 12.4 nM
  IC (TGI): 7.06 nM
[8]
  GI50: 4.68 nM
  CC50: 14200 nM
  IC (TGI): 1.5 nM
[9]
  GI50: 472 nM
  CC50: 14200 nM
  IC (TGI): 14200 nM
[10]
  GI50: 3.94 nM
  CC50: 35.1 nM
  IC (TGI): 8.01 nM
[11]
  GI50: 2.65 nM
  CC50: 234 nM
  IC (TGI): 6.6 nM
[12]
  GI50: 7.2 nM
  CC50: 14200 nM
  IC (TGI): 153 nM
[13]
  GI50: 1.59 nM
  CC50: 8.64 nM
  IC (TGI): 3.7 nM
[14]
  GI50: 3.9 nM
  CC50: 2070 nM
  IC (TGI): 12.8 nM

## C=CCN1[C@@H]2c3c(cc(C)c(OC)c3O)C[C@H]1[C@H](C#N)N1C2[C@@H]2SC[C@]3(NCCc4c3[nH]c3ccc(OC)cc43)C(=O)OC[C@H]1c1c3c(c(C)c(OC(C)=O)c12)OCO3 (stereo partly drawn) [compound 56]
[1]
  GI50: 48.8 nM
  CC50: 12000 nM
  IC (TGI): 571 nM
[2]
  GI50: 23 nM
  CC50: 101 nM
  IC (TGI): 48.2 nM
[3]
  GI50: 30.2 nM
  CC50: 705 nM
  IC (TGI): 68.7 nM
[4]
  GI50: 40.2 nM
  CC50: 12000 nM
  IC (TGI): 79.7 nM
[5]
  GI50: 25.9 nM
  CC50: 204 nM
  IC (TGI): 58.3 nM
[6]
  GI50: 26.3 nM
  CC50: 91.4 nM
  IC (TGI): 49 nM
[7]
  GI50: 27.1 nM
  CC50: 104 nM
  IC (TGI): 53.1 nM
[8]
  GI50: 41 nM
  CC50: 12000 nM
  IC (TGI): 101 nM
[9]
  GI50: 333 nM
  CC50: 12000 nM
  IC (TGI): 1330 nM
[10]
  GI50: 34.2 nM
  CC50: 1060 nM
  IC (TGI): 69.3 nM
[11]
  GI50: 6.89 nM
  CC50: 12000 nM
  IC (TGI): 86.8 nM
[12]
  GI50: 5.71 nM
  CC50: 422 nM
  IC (TGI): 18.6 nM
[13]
  GI50: 12.2 nM
  CC50: 67.7 nM
  IC (TGI): 28.8 nM
[14]
  GI50: 90.2 nM
  CC50: 12000 nM
  IC (TGI): 953 nM

## C=CCN1[C@@H]2c3c(cc(C)c(OC)c3OC(=O)OC(C)(C)C)C[C@H]1[C@H](C#N)N1C2[C@@H]2SC[C@]3(NCCc4cc(OC(=O)OC(C)(C)C)c(OC)cc43)C(=O)OC[C@H]1c1c3c(c(C)c(OC(C)=O)c12)OCO3 (stereo partly drawn) [compound 45]
[1]
  GI50: 83.6 nM
  CC50: 10000 nM
  IC (TGI): 1410 nM
[2]
  GI50: 130 nM
  CC50: 614 nM
  IC (TGI): 283 nM
[3]
  GI50: 162 nM
  CC50: 1500 nM
  IC (TGI): 413 nM
[4]
  GI50: 86.5 nM
  CC50: 10000 nM
  IC (TGI): 497 nM
[5]
  GI50: 28.4 nM
  CC50: 783 nM
  IC (TGI): 121 nM
[6]
  GI50: 117 nM
  CC50: 689 nM
  IC (TGI): 285 nM
[7]
  GI50: 16.4 nM
  CC50: 79.7 nM
  IC (TGI): 36.2 nM
[8]
  GI50: 35.9 nM
  CC50: 10000 nM
  IC (TGI): 103 nM
[9]
  GI50: 479 nM
  CC50: 10000 nM
  IC (TGI): 3140 nM
[10]
  GI50: 56.9 nM
  CC50: 10000 nM
  IC (TGI): 392 nM
[11]
  GI50: 17.6 nM
  CC50: 10000 nM
  IC (TGI): 150 nM
[12]
  GI50: 2.83 nM
  CC50: 133 nM
  IC (TGI): 7.56 nM
[13]
  GI50: 3.83 nM
  CC50: 51.5 nM
  IC (TGI): 17.3 nM
[14]
  GI50: 229 nM
  CC50: 10000 nM
  IC (TGI): 1240 nM

## COc1c(C)cc2c(c1OC(=O)/C=C/c1ccccc1)[C@H]1N[C@@H](C2)[C@H](O)N2C1[C@@H]1SCC(NC(=O)C(F)(F)F)C(=O)OC[C@H]2c2c3c(c(C)c(OC(C)=O)c21)OCO3 (stereo partly drawn) [compound 40]
[1]
  GI50: 337 nM
  CC50: 3840 nM
  IC (TGI): 1050 nM
[2]
  GI50: 213 nM
  CC50: 1680 nM
  IC (TGI): 552 nM
[3]
  GI50: 195 nM
  CC50: 1030 nM
  IC (TGI): 447 nM
[4]
  GI50: 289 nM
  CC50: 980 nM
  IC (TGI): 533 nM
[5]
  GI50: 153 nM
  CC50: 775 nM
  IC (TGI): 344 nM
[6]
  GI50: 162 nM
  CC50: 688 nM
  IC (TGI): 334 nM
[7]
  GI50: 111 nM
  CC50: 661 nM
  IC (TGI): 276 nM
[8]
  GI50: 5630 nM
  CC50: 1630 nM
  IC (TGI): 160 nM
[9]
  GI50: 354 nM
  CC50: 2790 nM
  IC (TGI): 810 nM
[10]
  GI50: 91.3 nM
  CC50: 1280 nM
  IC (TGI): 317 nM
[11]
  GI50: 41.4 nM
  CC50: 776 nM
  IC (TGI): 131 nM
[12]
  GI50: 42.6 nM
  CC50: 524 nM
  IC (TGI): 97.6 nM
[13]
  GI50: 48.1 nM
  CC50: 509 nM
  IC (TGI): 162 nM
[14]
  GI50: 321 nM
  CC50: 2570 nM
  IC (TGI): 747 nM
